{"source": "patent US20250115583A1", "about": "“BICYCLIC INDAZOLE GLUCOCORTICOID RECEPTOR ANTAGONISTS” (Corcept Therapeutics Incorporated, priority 2021, published 2025)", "molecular_target": "glucocorticoid receptor (Homo sapiens (Human), UniProt P04150)", "sequence (P04150 whole entry)": "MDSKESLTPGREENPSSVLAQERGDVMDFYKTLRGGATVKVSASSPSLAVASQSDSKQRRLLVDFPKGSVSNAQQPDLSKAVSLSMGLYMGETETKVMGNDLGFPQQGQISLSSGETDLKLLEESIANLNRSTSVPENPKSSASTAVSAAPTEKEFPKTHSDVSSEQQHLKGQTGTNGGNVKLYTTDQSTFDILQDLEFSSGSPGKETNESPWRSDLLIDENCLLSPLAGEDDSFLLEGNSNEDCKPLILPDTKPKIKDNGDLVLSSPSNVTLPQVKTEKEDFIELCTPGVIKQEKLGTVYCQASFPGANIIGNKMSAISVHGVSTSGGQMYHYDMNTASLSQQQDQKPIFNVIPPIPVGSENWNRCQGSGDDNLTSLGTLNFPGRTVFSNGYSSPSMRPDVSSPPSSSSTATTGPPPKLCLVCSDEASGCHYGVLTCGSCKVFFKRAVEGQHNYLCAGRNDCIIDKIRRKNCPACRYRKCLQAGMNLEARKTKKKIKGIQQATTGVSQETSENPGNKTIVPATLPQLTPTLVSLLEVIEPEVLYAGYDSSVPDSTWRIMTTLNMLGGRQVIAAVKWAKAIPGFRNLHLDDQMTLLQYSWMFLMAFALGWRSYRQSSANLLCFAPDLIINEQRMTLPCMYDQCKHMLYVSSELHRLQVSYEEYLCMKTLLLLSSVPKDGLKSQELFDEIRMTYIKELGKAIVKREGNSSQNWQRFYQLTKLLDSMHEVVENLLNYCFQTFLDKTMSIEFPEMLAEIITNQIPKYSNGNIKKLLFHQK", "experiment": "HepG2 TAT assay: inhibition of dexamethasone-induced tyrosine aminotransferase (TAT) activity", "format": "cell-based", "conditions": "HepG2 cells, challenge of 100 nM dexamethasone, 18-24 hr; IC50 converted to Ki by Cheng and Prusoff equation", "experimental": "Glucocorticoid mediated activation of TAT occurs by transactivation of glucocorticoid response elements in the TAT promoter by glucocorticoid receptor-agonist complex.\nHepG2 cells were cultured using MEME media supplemented with 10% (v/v) foetal bovine serum; 2 mM L-glutamine and 1% (v/v) NEAA at 37° C., 5%/95% (v/v) CO2/air.\nCompounds were serially half log diluted in 100% (v/v) dimethylsulphoxide from a 10 mM stock.\nHepG2 cells were then lysed with 30 μl of cell lysis buffer containing a protease inhibitor cocktail for 15 minutes at 4° C. […] After 2 hours incubation at 37° C. the reaction was terminated by the addition of 15 μl of 10M aqueous potassium hydroxide solution, and the plates incubated for a further 30 minutes at 37° C.\n[compound] and fitting the data to a 4 parameter logistic equation.", "note": "pKi: −log10 of the molar value."}
{"compound": "5-(6-((4,4-difluoropiperidin-1-yl)methyl)-3-((2-methyl-2H-1,2,3-triazol-4-yl)sulfonyl)-3-azabicyclo[3.1.0]hexan-1-yl)-1-(4-fluorophenyl)-6-methyl-1H-indazole [Example 181]", "values": [{"measurement": "pKi", "result": 6.60}]}
{"compound": "CC(=O)NC[C@@H]1[C@H]2CN(S(=O)(=O)c3cnn(C)n3)C[C@@]12c1cc2cnn(-c3ccc(F)cc3)c2cc1C", "note": "(racemic) [Example 135, N-((1-(1-(4-fluorophenyl)-6-methyl-1H-indazol-5-yl)-3-((2-methyl-2H-1,2,3-triazol-4-yl)sulfonyl)-3-azabicyclo[3.1.0]hexan-6-yl)methyl)acetamide]", "values": [{"measurement": "pKi", "result": 6.52}]}
{"compound": "CO[C@@]1(c2ccccc2)C[C@H]2CN(C(=O)c3ccccc3)C[C@@]2(c2cc3cnn(-c4ccc(F)cc4)c3cc2C)C1", "note": "(single isomer, unassigned) [Example 20, (3a-(1-(4-fluorophenyl)-6-methyl-1H-indazol-5-yl)-5-methoxy-5-phenylhexahydrocyclopenta[c]pyrrol-2(1H)-yl)(phenyl)methanone]", "values": [{"measurement": "pKi", "result": 7.10}]}
{"compound": "Cc1cc2c(cnn2-c2ccc(F)cc2)cc1C12CN(S(=O)(=O)c3cnn(C)n3)CC1C2COc1ccc(Cl)cc1", "note": "(single isomer, unassigned) [Example 52, 5-(6-((4-chlorophenoxy)methyl)-3-((2-methyl-2H-1,2,3-triazol-4-yl)sulfonyl)-3-azabicyclo[3.1.0]hexan-1-yl)-1-(4-fluorophenyl)-6-methyl-1H-indazole]", "values": [{"measurement": "pKi", "result": 6.42}]}
{"compound": "Cc1cc2c(cnn2-c2ccc(F)cc2)cc1C12CN(S(=O)(=O)c3cnn(C)n3)CC1C2COc1ccc(Cl)cc1", "note": "(single isomer, unassigned) [Example 53, 5-(6-((4-chlorophenoxy)methyl)-3-((2-methyl-2H-1,2,3-triazol-4-yl)sulfonyl)-3-azabicyclo[3.1.0]hexan-1-yl)-1-(4-fluorophenyl)-6-methyl-1H-indazole]", "values": [{"measurement": "pKi", "result": 6.96}]}
{"compound": "CCCn1cc(S(=O)(=O)N2C[C@@H]3[C@@H](c4ccccc4)[C@]3(c3cc4cnn(-c5ccc(F)cc5)c4cc3C)C2)cn1", "note": "(single isomer, unassigned) [Example 69, 1-(4-fluorophenyl)-6-methyl-5-(6-phenyl-3-((1-propyl-1H-pyrazol-4-yl)sulfonyl)-3-azabicyclo[3.1.0]hexan-1-yl)-1H-indazole]", "values": [{"measurement": "pKi", "result": 7.62}]}
{"compound": "Cc1cc2c(cnn2-c2ccc(F)cc2)cc1[C@@]12CN(S(=O)(=O)c3ccn(C)n3)C[C@@H]1[C@H]2c1ccccc1", "note": "(single isomer, unassigned) [Example 76]", "values": [{"measurement": "pKi", "result": 8.03}]}
{"compound": "Cc1cc2c(cnn2-c2ccc(F)cc2)cc1[C@@]12CN(S(=O)(=O)N3CCCC3)C[C@@H]1[C@H]2c1ccccc1", "note": "(single isomer, unassigned) [Example 99]", "values": [{"measurement": "pKi", "result": 7.55}]}
{"compound": "CC(=O)N1C[C@@H]2[C@@H](c3ccccc3)[C@]2(c2cc3cnn(-c4ccc(F)cc4)c3cc2C)C1", "note": "(single isomer, unassigned) [Example 111, 1-(1-(1-(4-fluorophenyl)-6-methyl-1H-indazol-5-yl)-6-phenyl-3-azabicyclo[3.1.0]hexan-3-yl)ethan-1-one]", "values": [{"measurement": "pKi", "result": 7.28}]}
{"compound": "Cc1cc2c(cnn2-c2ccc(F)cc2)cc1[C@@]12CN(C(=O)c3cccnc3)C[C@@H]1[C@H]2c1ccccc1", "note": "(single isomer, unassigned) [Example 112, (1-(1-(4-fluorophenyl)-6-methyl-1H-indazol-5-yl)-6-phenyl-3-azabicyclo[3.1.0]hexan-3-yl)(pyridin-3-yl)methanone]", "values": [{"measurement": "pKi", "result": 7.19}]}
{"compound": "Cc1cc2c(cnn2-c2ccc(F)cc2)cc1[C@@]12CN(C(=O)C(C)C)C[C@@H]1[C@H]2c1ccccc1", "note": "(single isomer, unassigned) [Example 113, 1-(1-(1-(4-fluorophenyl)-6-methyl-1H-indazol-5-yl)-6-phenyl-3-azabicyclo[3.1.0]hexan-3-yl)-2-methylpropan-1-one]", "values": [{"measurement": "pKi", "result": 7.24}]}
{"compound": "COC(=O)N1C[C@@H]2[C@@H](c3ccccc3)[C@]2(c2cc3cnn(-c4ccc(F)cc4)c3cc2C)C1", "note": "(single isomer, unassigned) [Example 118, methyl 1-(1-(4-fluorophenyl)-6-methyl-1H-indazol-5-yl)-6-phenyl-3-azabicyclo[3.1.0]hexane-3-carboxylate]", "values": [{"measurement": "pKi", "result": 7.40}]}
{"compound": "COCC(=O)N1C[C@@H]2[C@@H](c3ccccc3)[C@]2(c2cc3cnn(-c4ccc(F)cc4)c3cc2C)C1", "note": "(single isomer, unassigned) [Example 119, 1-(1-(1-(4-fluorophenyl)-6-methyl-1H-indazol-5-yl)-6-phenyl-3-azabicyclo[3.1.0]hexan-3-yl)-2-methoxyethan-1-one]", "values": [{"measurement": "pKi", "result": 7.32}]}
{"compound": "CCOC(=O)N1C[C@@H]2[C@@H](c3ccccc3)[C@]2(c2cc3cnn(-c4ccc(F)cc4)c3cc2C)C1", "note": "(single isomer, unassigned) [Example 122, ethyl 1-(1-(4-fluorophenyl)-6-methyl-1H-indazol-5-yl)-6-phenyl-3-azabicyclo[3.1.0]hexane-3-carboxylate]", "values": [{"measurement": "pKi", "result": 7.66}]}
{"compound": "COCCOC(=O)N1C[C@@H]2[C@@H](c3ccccc3)[C@]2(c2cc3cnn(-c4ccc(F)cc4)c3cc2C)C1", "note": "(single isomer, unassigned) [Example 123, 2-methoxyethyl 1-(1-(4-fluorophenyl)-6-methyl-1H-indazol-5-yl)-6-phenyl-3-azabicyclo[3.1.0]hexane-3-carboxylate]", "values": [{"measurement": "pKi", "result": 7.57}]}
{"compound": "CNC(=O)N1C[C@@H]2[C@@H](c3ccccc3)[C@]2(c2cc3cnn(-c4ccc(F)cc4)c3cc2C)C1", "note": "(single isomer, unassigned) [Example 124, 1-(1-(4-fluorophenyl)-6-methyl-1H-indazol-5-yl)-N-methyl-6-phenyl-3-azabicyclo[3.1.0]hexane-3-carboxamide]", "values": [{"measurement": "pKi", "result": 6.92}]}
{"compound": "Cc1cc2c(cnn2-c2ccc(F)cc2)cc1[C@@]12CN(C(=O)OC3CCOCC3)C[C@@H]1[C@H]2c1ccccc1", "note": "(single isomer, unassigned) [Example 125, tetrahydro-2H-pyran-4-yl 1-(1-(4-fluorophenyl)-6-methyl-1H-indazol-5-yl)-6-phenyl-3-azabicyclo[3.1.0]hexane-3-carboxylate]", "values": [{"measurement": "pKi", "result": 7.54}]}
{"compound": "Cc1cc2c(cnn2-c2ccc(F)cc2)cc1[C@@]12CN(C(=O)N3CCCC3)C[C@@H]1[C@H]2c1ccccc1", "note": "(single isomer, unassigned) [Example 126, (1-(1-(4-fluorophenyl)-6-methyl-1H-indazol-5-yl)-6-phenyl-3-azabicyclo[3.1.0]hexan-3-yl)(pyrrolidin-1-yl)methanone]", "values": [{"measurement": "pKi", "result": 7.47}]}
{"compound": "Cc1cc2c(cnn2-c2ccc(F)cc2)cc1[C@@]12CN(C(=O)c3cnn(C)n3)C[C@@H]1[C@H]2c1ccccc1", "note": "(single isomer, unassigned) [Example 127, (1-(1-(4-fluorophenyl)-6-methyl-1H-indazol-5-yl)-6-phenyl-3-azabicyclo[3.1.0]hexan-3-yl)(2-methyl-2H-1,2,3-triazol-4-yl)methanone]", "values": [{"measurement": "pKi", "result": 7.72}]}
{"compound": "Cc1cc2c(cnn2-c2ccc(F)cc2)cc1[C@@]12CN(C(=O)c3ccccc3F)C[C@@H]1[C@H]2c1ccccc1", "note": "(single isomer, unassigned) [Example 128, (2-fluorophenyl)(1-(1-(4-fluorophenyl)-6-methyl-1H-indazol-5-yl)-6-phenyl-3-azabicyclo[3.1.0]hexan-3-yl)methanone]", "values": [{"measurement": "pKi", "result": 8.23}]}
{"compound": "Cc1cc2c(cnn2-c2ccc(F)cc2)cc1[C@@]12CN(C(=O)c3cnn(C)c3)C[C@@H]1[C@H]2c1ccccc1", "note": "(single isomer, unassigned) [Example 129, (1-(1-(4-fluorophenyl)-6-methyl-1H-indazol-5-yl)-6-phenyl-3-azabicyclo[3.1.0]hexan-3-yl)(1-methyl-1H-pyrazol-4-yl)methanone]", "values": [{"measurement": "pKi", "result": 7.43}]}
{"compound": "Cc1cc2c(cnn2-c2ccc(F)cc2)cc1[C@@]12CN(C(=O)c3ccccc3C#N)C[C@@H]1[C@H]2c1ccccc1", "note": "(single isomer, unassigned) [Example 130, 2-(1-(1-(4-fluorophenyl)-6-methyl-1H-indazol-5-yl)-6-phenyl-3-azabicyclo[3.1.0]hexane-3-carbonyl)benzonitrile]", "values": [{"measurement": "pKi", "result": 8.24}]}
{"compound": "Cc1cc2c(cnn2-c2ccc(F)cc2)cc1[C@@]12CN(S(=O)(=O)C3COC3)C[C@@H]1[C@H]2c1ccccc1", "note": "(single isomer, unassigned) [Example 140, 5-(3-(oxetan-3-ylsulfonyl)-6-phenyl-3-azabicyclo[3.1.0]hexan-1-yl)-1-(4-fluorophenyl)-6-methyl-1H-indazole]", "values": [{"measurement": "pKi", "result": 7.19}]}
{"compound": "COc1cccc(C(=O)N2C[C@@H]3[C@@H](c4ccccc4)[C@]3(c3cc4cnn(-c5ccc(F)cc5)c4cc3C)C2)c1", "note": "(single isomer, unassigned) [Example 141, (1-(1-(4-fluorophenyl)-6-methyl-1H-indazol-5-yl)-6-phenyl-3-azabicyclo[3.1.0]hexan-3-yl)(3-methoxyphenyl)methanone]", "values": [{"measurement": "pKi", "result": 7.72}]}
{"compound": "Cc1ccnc(C(=O)N2C[C@@H]3[C@@H](c4ccccc4)[C@]3(c3cc4cnn(-c5ccc(F)cc5)c4cc3C)C2)c1", "note": "(single isomer, unassigned) [Example 146, (1-(1-(4-fluorophenyl)-6-methyl-1H-indazol-5-yl)-6-phenyl-3-azabicyclo[3.1.0]hexan-3-yl)(4-methylpyridin-2-yl)methanone]", "values": [{"measurement": "pKi", "result": 7.85}]}
{"compound": "Cc1cc2c(cnn2-c2ccc(F)cc2)cc1[C@@]12CN(C(=O)c3ncccc3C(F)(F)F)C[C@@H]1[C@H]2c1ccccc1", "note": "(single isomer, unassigned) [Example 148, (1-(1-(4-fluorophenyl)-6-methyl-1H-indazol-5-yl)-6-phenyl-3-azabicyclo[3.1.0]hexan-3-yl)(3-(trifluoromethyl)pyridin-2-yl)methanone]", "values": [{"measurement": "pKi", "result": 8.04}]}
